Literature values in patent publication US20040126318A1, “Methods, formulations and kits for monitoring and diagnosing gastric emptying and gastroparesis, and formulations for determining gastrointestinal motility” (priority 2002, published 2004).

| SMILES | patients with serious side effects (drowsiness, nightmares, depression, Parkinsonism) (patients treated with this drug) | cardiac side effects (reason for removal from the market by the FDA) |
| --- | --- | --- |
| CCN(CC)CCNC(=O)c1cc(Cl)c(N)cc1OC [Metochlopramide] | up to 50% |  |
| COc1cc(N)c(Cl)cc1C(=O)NC1CCN(CCCOc2ccc(F)cc2)CC1OC (centres unmarked) [cisapride] |  | produced severe and sometimes fatal arrhythmias |
